We go through 1 compound from patent EP0261693A1, “Treated lipid regulator” (WARNER-LAMBERT COMPANY, priority 1986, dated 1988).

A short description of this data set: Concentration (solubility) of gemfibrozil in buffer, from absorbance at 280 nm. The settings on record: aqueous buffer, excess gemfibrozil agitated overnight at room temperature, filtered, read-out: concentration of gemfibrozil in each buffer. It is filed as physicochemical. The procedure:
Gemfibrozil solutions were prepared in 0.05 M acetate buffer, pH 4.5, and 0.05 M phosphate buffer, pH 6.0 and 7.5 as follows: • Gemfibrozil solutions were prepared by adding an excess of gemfibrozil to the desired volume of buffer and agitating overnight on a shaker at room temperature. The resulting suspension was vacuum filtered. Gemfibrozil concentration was determined from absorbance at 280 nm, using [formula]
Ultraviolet absorbance measurements were obtained on a Beckman DU-7 spectrophotometer.
The concentration of gemfibrozil in each buffer, determined from absorbance at 280 nm was: pH 4.5, 0.014 mg/ml; pH 6.0, 0.150 mg/ml; pH 7.5, 1.711 mg/ml. Cholestyramine (10 mg) was added to 20 ml of each gemfibrozil solution and the mixtures were agitated for 2 hours. The mixtures were filtered and the concentration of unboud gemfibrozil was determined.

In brackets after ≈: the same amount, converted by molar mass. Read-outs that look alike come from different tables or passages of the source.

As for `Cc1ccc(C)c(OCCCC(C)(C)C(=O)O)c1` [gemfibrozil], the solubility thermodynamic was found to be 14 µg/mL (≈ 55.9 µM) (0.05 M acetate buffer, pH 4.5); 150 µg/mL (≈ 599 µM) (0.05 M phosphate buffer, pH 6.0); 1710 µg/mL (≈ 6830 µM) (0.05 M phosphate buffer, pH 7.5).
